Where a name gives a salt, the structure may show the parent alone.

This assay has as its target Sphingosine 1-phosphate receptor 3 (Homo sapiens, UniProt Q99500). Nature of the assay: nonspecific agonism in S1P3 NFAT-BLA cells – counter-screen for 5HT1E agonist project, dose response (AID 730).

Sphingosine 1-phosphate receptor 3, sequence (Q99500 whole entry): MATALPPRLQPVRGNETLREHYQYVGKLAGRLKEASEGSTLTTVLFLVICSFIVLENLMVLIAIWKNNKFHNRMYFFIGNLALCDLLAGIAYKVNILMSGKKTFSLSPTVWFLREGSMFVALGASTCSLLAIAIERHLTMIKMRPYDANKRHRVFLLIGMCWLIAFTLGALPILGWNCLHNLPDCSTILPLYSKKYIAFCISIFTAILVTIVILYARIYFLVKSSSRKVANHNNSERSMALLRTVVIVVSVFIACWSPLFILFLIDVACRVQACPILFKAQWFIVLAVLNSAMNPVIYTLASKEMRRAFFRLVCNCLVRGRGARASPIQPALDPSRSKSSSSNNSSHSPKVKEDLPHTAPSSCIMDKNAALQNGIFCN

For the molecule `CC(=O)Nc1ccc(S(=O)(=O)N(C)c2ccc(O)cc2)cc1` [MLS000081936], the EC50 (as a rule, the concentration at which the effect is half-maximal) is greater than 40 µM.
The molecule `NCCc1c[nH]c2ccc(F)cc12` [MLS000047815] registered an EC50 greater than 40 µM.
On to `O=C(O)C1CCCCC1C(=O)NCCc1c[nH]c2ccccc12` (stereo not given) [2-[2-(1H-indol-3-yl)ethylcarbamoyl]cyclohexane-1-carboxylic acid], for which the 50% effective concentration (EC50) is greater than 40 µM.
To `CC1CN(c2nnnn2-c2ccccc2)CC(C)O1` (stereo not given) [SMR000109556] belongs greater than 40 µM.
The figure for `CSc1nc2ccc(NC(=O)C3CCCO3)cc2s1` (stereo not given) [N-[2-(methylthio)-1,3-benzothiazol-6-yl]-2-oxolanecarboxamide] is greater than 40 µM.
To `CC[C@@H](CO)NC(=O)[C@@H]1C=C2c3cccc4c3c(cn4C)C[C@H]2N(C)C1` [METHYSERGIDE MALEATE] belongs greater than 40 µM; to `Cn1c(-c2ccccc2)cnc1SCc1nc(O)c2ccccc2n1` [MLS000077265], greater than 40 µM.
On to `O=C(Nc1cccc(-c2cn3ccsc3n2)c1)c1ccccc1` [N-[3-(6-imidazo[2,1-b]thiazolyl)phenyl]benzamide], for which the EC50 was greater than 40 µM.
The figure for `CN1CCN(C(N=O)c2nonc2N)CC1` (stereo not given) is greater than 40 µM; for `CCOC(=O)C1CCN(C(c2cccnc2)c2c(NC(=O)c3ccco3)sc(C)c2C)CC1` (stereo not given) [SMR000019649] it is greater than 40 µM.
To `CCCCN(C)CCCNC(=O)Cn1c(=O)sc2ccccc21` [N-{3-[butyl(methyl)amino]propyl}-2-(2-oxo-1,3-benzothiazol-3(2H)-yl)acetamide] belongs greater than 40 µM; to `CCOC(=O)C1C(C)=NC(=O)NC1c1ccc(OCC(=O)Nc2ccccc2)c(OC)c1` (stereo not given) [SMR000093032], greater than 40 µM.
In turn, `Cc1[nH]c2c(Cl)cccc2c1CCN` displayed an EC50 greater than 40 µM.
The figure for `CCc1nn(C(C)C(=O)NCCN2CCN(c3cccc(C)c3C)CC2)c(=O)c2cc3occc3n12` (stereo not given) [SMR000029605] is greater than 40 µM.
To `CC(CCc1ccccc1)NC(=O)CSc1nc(N)cc(N)n1` (stereo not given) [MLS000254508] belongs greater than 40 µM; to `c1ccc(N2CCN(Cc3cn4cccnc4n3)CC2)cc1`, greater than 40 µM.
To `COc1cc(CN2CCN(c3cccc(C)c3C)CC2)cc(OC)c1O` [4-[[4-(2,3-dimethylphenyl)piperazin-1-yl]methyl]-2,6-dimethoxy-phenol] belongs greater than 40 µM; to `CCOC(=O)c1cc2ccc(OC(=O)c3ccco3)cc2oc1=O` [ethyl 7-(2-furoyloxy)-2-oxo-2H-chromene-3-carboxylate], 10.5 µM; to `O=C(COC(=O)CCC1CCCC1)Nc1ccc(Cl)cn1` [[2-[(5-chloropyridin-2-yl)amino]-2-oxoethyl] 3-cyclopentylpropanoate], greater than 40 µM.
In turn, `C[N+]1=C2CCCCCN2C(O)(c2ccccc2)C1` (stereo not given) [MLS000048587] registered a 50% effective concentration (EC50) greater than 40 µM.
Take `CCOC(=O)c1c(C)nc(-c2ccccc2)nc1NC(=O)CC` [ethyl 4-methyl-2-phenyl-6-(propionylamino)pyrimidine-5-carboxylate]: the EC50 was greater than 40 µM.
The figure for `Cc1cccc(NC(=O)C2CCCN(C(=O)Nc3ccccc3)C2)c1C` (stereo not given) [SMR000006943] is greater than 40 µM; for `Cc1noc(C)c1COc1ccc(C(=O)OC(C)C(=O)Nc2ccc(N3CCOCC3)cc2)cc1` (stereo not given) [[1-[(4-morpholin-4-ylphenyl)amino]-1-oxidanylidene-propan-2-yl] 4-[(3,5-dimethyl-1,2-oxazol-4-yl)methoxy]benzoate] it is greater than 40 µM.
For the molecule `O=S(=O)(c1cccc(Cl)c1)N1CCCC1` [MLS000063405], the 50% effective concentration (EC50) was greater than 40 µM.
To `Cc1[nH]c2c(C(F)(F)F)cccc2c1CCN` [2-[2-methyl-7-(trifluoromethyl)-1H-indol-3-yl]ethanamine;hydrochloride] belongs greater than 40 µM.
The figure for `Cc1cc(C(C)(C)C)c(O)c(C)c1CC1=NCCN1` [SMR000059324] is greater than 40 µM.
Take `CCOC(=O)c1oc2ccccc2c1NC(=O)c1cc(OC)cc(OC)c1` [ethyl 3-[(3,5-dimethoxybenzoyl)amino]-1-benzofuran-2-carboxylate]: the EC50 is greater than 40 µM.
`CN1CC=C(c2c[nH]c3ccccc23)CC1` [MLS000120058] returned an EC50 greater than 40 µM.
The figure for `CCOC(=O)C1CCN(C(=O)Cc2c(C(=O)O)n(C)c3ccccc23)CC1` [3-{2-[4-(ethoxycarbonyl)piperidin-1-yl]-2-oxoethyl}-1-methyl-1H-indole-2-carboxylic acid] is greater than 40 µM.
To `COC(=O)CC(=O)Cc1nc(N)nc(Nc2ccc(C)c(C)c2)n1` [4-[4-amino-6-(3,4-dimethylanilino)-1,3,5-triazin-2-yl]-3-oxobutanoic acid methyl ester] belongs greater than 40 µM; to `COc1ccc(CN2CCN(c3ccccc3F)CC2)c(OC)c1`, greater than 40 µM.
To `CCN(CC)c1nc(N2CCOCC2)c(C#N)c2c1CN(C)CC2` [1-(diethylamino)-7-methyl-3-morpholin-4-yl-6,8-dihydro-5H-2,7-naphthyridine-4-carbonitrile] belongs greater than 40 µM; to `Cc1cccc(N2CCN(C(=O)Cc3c(C(=O)O)[nH]c4ccc(Cl)cc34)CC2)c1C` [5-chloranyl-3-[2-[4-(2,3-dimethylphenyl)piperazin-1-yl]-2-oxidanylidene-ethyl]-1H-indole-2-carboxylic acid], greater than 40 µM; to `c1ccc2sc(C3CCCNC3)nc2c1` (stereo not given) [SMR000067014], greater than 40 µM.
In turn, `Cn1cc(C(Cc2ccccc2)N=O)c2ccccc21` (stereo not given) [1-(1-methyl-3-indolyl)-2-phenylethanone oxime] showed an EC50 greater than 40 µM.
The figure for `CCCCc1ccc2[nH]cc(CCN)c2c1` is greater than 40 µM.
To `Cc1[nH]c2ccccc2c1C1=CCNCC1` [MLS000045807] belongs greater than 40 µM; to `COc1ccc(N(CC(=O)NC2CCCC2)C(=O)Cn2nnc(-c3ccc(C)cc3)n2)cc1OC` [N-[2-(cyclopentylamino)-2-oxoethyl]-N-(3,4-dimethoxyphenyl)-2-[5-(4-methylphenyl)tetrazol-2-yl]acetamide], greater than 40 µM; to `CN(C)CCOC(=O)c1cn(Cc2ccccc2)c2ccccc12` [2-(dimethylamino)ethyl 1-(phenylmethyl)indole-3-carboxylate;hydrochloride], greater than 40 µM.
The molecule `O=C(NCc1ccccc1)NC1(C(=O)N2CCCC2)CCCCC1` [1-Benzyl-3-[1-(pyrrolidine-1-carbonyl)-cyclohexyl]-urea] had an EC50 greater than 40 µM.
To `Cc1c(CN2CCN(c3cccc(C(F)(F)F)c3)CC2)c(=O)n(-c2ccccc2)n1C` belongs greater than 40 µM.
To `COc1ccc2[nH]cc(CCN(C)C)c2c1` [3-(2-DIMETHYLAMINOETHYL)-5-METHOXYINDOLE] belongs greater than 40 µM.
To `CN1CCN2c3ccccc3Cc3ccccc3C2C1` (stereo not given) [MIANSERIN HYDROCHLORIDE] belongs greater than 40 µM; to `CN(C)CCCn1c(NC(=O)C2CCCCC2)nc2ccccc21`, greater than 40 µM.
`CCCCN(CC)Cc1ccc(CNC(=O)Nc2ccc(OC)cc2OC)o1` [1-[[5-[[butyl(ethyl)amino]methyl]furan-2-yl]methyl]-3-(2,4-dimethoxyphenyl)urea] showed an EC50 greater than 40 µM.
The figure for `CCc1ccc(NC(=O)Cn2c(SC)nc3ccccc32)cc1` [N-(4-ethylphenyl)-2-[2-(methylthio)-1-benzimidazolyl]acetamide] is greater than 40 µM; for `C1=C(c2c[nH]c3ccccc23)CCNC1` it is greater than 40 µM.
To `CNCCc1c[nH]c2ccccc12` [N-OMEGA-METHYLTRYPTAMINE] belongs greater than 40 µM.
To `Cc1cc(C(C)(C)C)cc(C)c1CC1=NCCN1` [SMR000058526] belongs greater than 40 µM.
`CCN1CC=C(c2c[nH]c3ccccc23)CC1` [MLS000093713] yielded an EC50 greater than 40 µM.

(Values after BindingDB's records for doi:10.7270/Q2PN941W (The Scripps Research Institute Molecular Screening Center, 2007).)
